Values joined by “and” are separate entries in the source; they are usually repeats but may differ in a detail not shown here. Identical values can stand only once.
Assay: Drug release/delivery (pulse) time of capsule in stirred purified water at 37° C., spectrophotometric
Format: physicochemical
Description: A coated gelatin capsule of the type shown in FIG. 1 was filled with hydrogel powder prepared as in Example 1 of particle size 425 to 710 microns, and metoclopramide drug included as a separate layer. The hydrogel powder was compacted leaving a 4.5 mm space between the top of the hydrogel layer 10 and the mouth of the body 6. The metoclopramide was placed on top and the body was sealed with a hydrogel plug. […] The nominal delivery time was three hours.
In order to assess the delivery time to release of the drug, each capsule was placed in a liter of purified water at 37° C. stirred with a paddle at 50 rpm. The presence of drug in the water was monitored spectrophotometrically.
The procedure was repeated with a capsule having a hydrogel plug designed to provide a nominal delivery time of five hours. […] The "space" represents the space between the top of the hydrogel layer and the mouth of the body after inclusion of the drug. The space allows insertion of the plug to its correct depth without interference from the hydrogel powder fill. In this case the hydrogel plug was recessed 0.5 mm below the upper end of the neck of the capsule body.
Drug release was monitored spectrophotometrically at 226 nm.

Delivery Time (individual capsules 1 to 6, Example 2, hydrogel powder excipient, nominal delivery time three hours, 37° C., paddle 50 rpm) | mean delivery time (six capsules, Example 2, standard deviation 0.10, nominal three hours, hydrogel powder excipient) | mean pulse time (Example 4, standard deviation of 0.1, nominal three hour pulse time, shorter plug, hydrogel excipient) | Molecule
3.25 h and 3.00 h | 3.21 h | – | CCN(CC)CCNC(=O)c1cc(Cl)c(N)cc1OC [metoclopramide]
– | – | 3.29 h | salbutamol sulphate

Reference: patent US5897874A, “Expulsion of material from a delivery device” (R. P. Scherer Corporation, priority 1993, dated 1999)
